Results as given in PubChem BioAssay AID1963863 (Molecular Pharmacology Branch, DTP, NCI, 2024).

Test system: 931267-113-T-J1-PDC KRAS spheroid with HUVEC/MSC, viability
Experiment: Anticancer human tumor 931267-113-T-J1-PDC patient-derived colon adenocarcinoma cell line growth inhibition [KRAS2]
Settings: for viability, T/C: stronger effect = lower value; active = viability on the fitted dose curve at most 10% of control; inactive = the rest
Excerpt: Multicellular complex tumor spheroid response to RAS pathway inhibitors in combination with a targeted agents in patient-derived cell lines with oncogenic KRAS variants from multiple cancer types
A high-throughput screen of multi-cell type tumor spheroids was designed to identify active combinations of targeted small molecules and KRAS pathway inhibitors. Complex spheroids include a stromal component modeled by human endothelial cells (HUVEC) and fibroblasts modeled by human mesenchymal stem cells (MSCs). The concentration ranges selected for each drug and investigational agent were based upon clinically achievable concentrations if the clinical Cmax of the agent was known.
Compounds. The drugs and investigational agents: BI-3406 (NSC825286), BAY-293 (NSC824723), batoprotafib (TNO155; NSC825523), sotorasib (AMG 510; NSC818433), MRTX1257 (NSC819558), elimusertib (BAY 1895344; NSC800525), molibresib (GSK525762; NSC774829), temuterkib (LY3214996; NSC803410), venetoclax (NSC766270), alisertib (NSC759677), olaparib (NSC753686), talazoparib (NSC767125), erdafitinib (NSC781556), ipatasertib (NSC767898), cabozantinib (NSC761068), nintedanib (NSC756659), abemaciclib (NSC768073), docetaxel (NSC628503), trametinib (NSC758246), and sapanisertib (NSC764658) were obtained from the National Cancer Institute (NCI) Developmental Therapeutics Program Chemical Repository. The FDA-approved anticancer drug set is available from the Developmental Therapeutics Program. […] The stock solutions were prepared in dimethyl sulfoxide (DMSO, Sigma-Aldrich, St. Louis, MO, cat. D2650) at 800-fold the tested concentration and stored at -70 degrees C prior to their use. All drugs and investigational agents were tested over a range starting from a high concentration at or near the clinical Cmax and decreasing in half-log increments. If the clinical Cmax for an agent had not been determined, the highest concentration tested was 10 microM.
Cell Culture. All cells were maintained in an incubator at 37 degrees C and 5% CO2 with 95% humidity. The PDC lines were cultured according to standard operating procedures established by the NCI PDMR (https://pdmr.cancer.gov/sops/default.htm). Briefly, all PDCs were thawed and cultured in Matrigel-coated flasks prepared with a working solution of 1X Ham's F-12 nutrient mix, without supplementation (Invitrogen, Waltham, MA, cat. 11765054), 100 U/mL penicillin-streptomycin (Invitrogen, cat. 15140122), and 2.5% Matrigel (Corning Inc., Corning, NY, cat. 354248) for the first three passages. All PDCs were cultured in complete DMEM/F-12 media containing advanced DMEM/F-12 (Invitrogen, cat. 12634028), 4.9% defined fetal bovine serum, heat inactivated (HyClone Laboratories Inc., Logan, UT, cat. SH30070.03HI), 389 ng/mL hydrocortisone (Sigma-Aldrich, cat. H4001), 9.7 ng/mL human EGF recombinant protein (Invitrogen, cat. PHG0313), 23.4 microg/mL adenine (Sigma-Aldrich, cat. A2786), 97.3 U/mL penicillin-streptomycin (Invitrogen, cat. 15140122), 1.9 mM L-glutamine (Invitrogen, cat. 25030081), and 9.7 microM Y-27632 dihydrochloride (Tocris Bioscience, Bristol, United Kingdom, cat. 1254). The PDCs were cultured in complete DMEM/F12 media without 9.7 microM Y-27632 dihydrochloride for at least two passages prior to the screen. The established cell line HOP-62 was cultured in RPMI 1640 medium, HEPES (Invitrogen, cat. 22400105) with 10% defined fetal bovine serum (HyClone Laboratories Inc., cat. SH30070.03) and 2 mM L-glutamine (Invitrogen, cat. 25030081). The pooled donor HUVEC were cultured in endothelial cell growth medium 2 (PromoCell, Heidelberg, Germany, cat. C-22011) and the hMSC were cultured in mesenchymal stem cell growth medium 2 (PromoCell, cat. C-28009). For all experiments, HUVEC and hMSC were used at passages </=5, while the malignant cell lines were used at passages </=15. […]

[1] = curve of first compound, second compound 0.1 µM
[2] = curve of first compound, second compound 0.316 µM
[3] = curve of first compound, second compound 1 µM
[4] = curve of first compound, second compound 3.16 µM
[5] = second compound 0.1 µM, first compound 0.0316 µM
[6] = second compound 0.1 µM, first compound 0.1 µM
[7] = second compound 0.1 µM, first compound 0.316 µM
[8] = second compound 0.1 µM, first compound 1 µM
[9] = second compound 0.1 µM, first compound 3.16 µM
[10] = second compound 0.316 µM, first compound 0.0316 µM
[11] = second compound 0.316 µM, first compound 0.1 µM
[12] = second compound 0.316 µM, first compound 0.316 µM
[13] = second compound 0.316 µM, first compound 1 µM
[14] = second compound 0.316 µM, first compound 3.16 µM
[15] = second compound 1 µM, first compound 0.0316 µM
[16] = second compound 1 µM, first compound 0.1 µM
[17] = second compound 1 µM, first compound 0.316 µM
[18] = second compound 1 µM, first compound 1 µM
[19] = second compound 1 µM, first compound 3.16 µM
[20] = second compound 3.16 µM, first compound 0.0316 µM
[21] = second compound 3.16 µM, first compound 0.1 µM
[22] = second compound 3.16 µM, first compound 0.316 µM
[23] = second compound 3.16 µM, first compound 1 µM
[24] = second compound 3.16 µM, first compound 3.16 µM
[25] = curve of first compound, second compound 10 µM
[26] = second compound 0.1 µM, first compound 0.01 µM
[27] = second compound 0.316 µM, first compound 0.01 µM
[28] = second compound 1 µM, first compound 0.01 µM
[29] = second compound 3.16 µM, first compound 0.01 µM
[30] = second compound 10 µM, first compound 0.01 µM
[31] = second compound 10 µM, first compound 0.0316 µM
[32] = second compound 10 µM, first compound 0.1 µM
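Also: compound exposure lasted 7 days before the readout.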

COc1cc2nc(C)nc(NC(C)c3cc(N)cc(C(F)(F)F)c3)c2cc1OC1CCOC1 (configuration not stated)
4.4 µM [middle of 6 runs]: IC50 (compound alone, run of 09/02/2021)
4.74 µM [middle of 4 runs]: IC50 (compound alone, run of 08/26/2021)

CC1OCC2(CCN(c3cnc(Sc4ccnc(N)c4Cl)c(N)n3)CC2)C1N (configuration not stated) + C=CC(=O)N1CCN(c2nc(OCC3CCCN3C)nc3c2CCN(c2cccc4cccc(C)c24)C3)CC1CC#N
< 31.6 nM: IC50 [4]
inactive: viability, T/C (second compound 0.0316 µM, first compound 0.0316 µM) 111% | viability, T/C (second compound 0.0316 µM, first compound 0.1 µM) 81.9% | viability, T/C (second compound 0.0316 µM, first compound 0.316 µM) 77.3% | viability, T/C (second compound 0.0316 µM, first compound 1 µM) 58.2% | viability, T/C (second compound 0.0316 µM, first compound 3.16 µM) 80% | viability, T/C (second compound 0.0316 µM, first compound 10 µM) 83% | viability, T/C [5] 98.3% | viability, T/C [6] 75.6% | viability, T/C [7] 79.1% | viability, T/C [8] 75.2% | viability, T/C [9] 71.1% | viability, T/C (second compound 0.1 µM, first compound 10 µM) 99.3% | viability, T/C [10] 93% | viability, T/C [11] 87.8% | viability, T/C [12] 69.1% | viability, T/C [13] 70.2% | viability, T/C [14] 75.6% | viability, T/C (second compound 0.316 µM, first compound 10 µM) 69.6% | viability, T/C [15] 78% | viability, T/C [16] 65.9% | viability, T/C [17] 55.2% | viability, T/C [18] 68.7% | viability, T/C [19] 68.8% | viability, T/C (second compound 1 µM, first compound 10 µM) 61.2%
active: viability, T/C [20] 0.31% | viability, T/C [21] 0.29% | viability, T/C [22] 0.36% | viability, T/C [23] 0.26% | viability, T/C [24] 0.28% | viability, T/C (second compound 3.16 µM, first compound 10 µM) 0.26%
> 10000 nM: IC50 (curve of first compound, second compound 0.0316 µM) | IC50 [1] | IC50 [2] | IC50 [3]

CN(C)C/C=C/C(=O)Nc1cc2c(Nc3ccc(F)c(Cl)c3)ncnc2cc1O[C@H]1CCOC1 + CNCc1ccccc1-c1csc(C(C)Nc2nc(C)nc3cc(OC)c(OC)cc23)c1
0.489 nM: IC50 [3]
inactive: viability, T/C (second compound 0.1 µM, first compound 0.000316 µM) 88% | viability, T/C (second compound 0.1 µM, first compound 0.001 µM) 80.3% | viability, T/C (second compound 0.1 µM, first compound 0.00316 µM) 90.3% | viability, T/C [26] 97.7% | viability, T/C [5] 78% | viability, T/C [6] 88% | viability, T/C (second compound 0.316 µM, first compound 0.000316 µM) 114% | viability, T/C (second compound 0.316 µM, first compound 0.001 µM) 104% | viability, T/C (second compound 0.316 µM, first compound 0.00316 µM) 106% | viability, T/C [27] 76.7% | viability, T/C [10] 78.4% | viability, T/C [11] 79.8% | viability, T/C (second compound 1 µM, first compound 0.000316 µM) 69.9% | viability, T/C (second compound 1 µM, first compound 0.001 µM) 12.7% | viability, T/C (second compound 1 µM, first compound 0.00316 µM) 16.5% | viability, T/C [28] 21.8% | viability, T/C [15] 33.7% | viability, T/C [16] 1.43% | viability, T/C (second compound 3.16 µM, first compound 0.000316 µM) 94.4% | viability, T/C (second compound 3.16 µM, first compound 0.001 µM) 108% | viability, T/C (second compound 3.16 µM, first compound 0.00316 µM) 0.36% | viability, T/C [29] 0.29% | viability, T/C [20] 68.5% | viability, T/C [21] 0.32%
2.02 nM: IC50 [4]
> 100 nM: IC50 [1] | IC50 [2]
active: viability, T/C (second compound 10 µM, first compound 0.000316 µM) 0.23% | viability, T/C (second compound 10 µM, first compound 0.001 µM) 0.22% | viability, T/C (second compound 10 µM, first compound 0.00316 µM) 0.24% | viability, T/C [30] 0.45% | viability, T/C [31] 0.17% | viability, T/C [32] 0.22%
< 0.316 nM: IC50 [25]

CC1COCCN1c1cc(-c2ccnn2C)c2ccnc(-c3ccn[nH]3)c2n1 (configuration not stated) + CC1OCC2(CCN(c3cnc(Sc4ccnc(N)c4Cl)c(N)n3)CC2)C1N
44.3 nM: IC50 [3]
33.2 nM: IC50 [4]
42.4 nM: IC50 [1]
45.3 nM: IC50 [2]
inactive: viability, T/C [26] 92.3% | viability, T/C [5] 57.3% | viability, T/C [6] 28.9% | viability, T/C [7] 16.6% | viability, T/C [8] 16.9% | viability, T/C [9] 19.5% | viability, T/C [27] 81.2% | viability, T/C [10] 63.4% | viability, T/C [11] 20.6% | viability, T/C [12] 15.6% | viability, T/C [13] 19% | viability, T/C [14] 18.6% | viability, T/C [28] 91.1% | viability, T/C [15] 58.5% | viability, T/C [16] 29.6% | viability, T/C [17] 18.1% | viability, T/C [18] 18.5% | viability, T/C [19] 13.6% | viability, T/C [29] 80.6% | viability, T/C [20] 50.4% | viability, T/C [21] 29.3% | viability, T/C [22] 16.1% | viability, T/C [23] 15.4% | viability, T/C [24] 18.4% | viability, T/C [30] 86.9% | viability, T/C [31] 80.5% | viability, T/C [32] 25.6% | viability, T/C (second compound 10 µM, first compound 0.316 µM) 14.4% | viability, T/C (second compound 10 µM, first compound 1 µM) 13.9% | viability, T/C (second compound 10 µM, first compound 3.16 µM) 15.6%
59.9 nM: IC50 [25]
